{"source": "patent US11766470B2", "about": "“Manufacture, formulation and dosing of apraglutide” (VectivBio AG, priority 2020, dated 2023)", "key": {"[1]": {"settings": "cited from earlier work"}, "[2]": {"assay": "Multiple dose study in healthy volunteers (Examples 4 and 7), pharmacokinetics of plasma apraglutide, non-compartmental analysis", "settings": "for CL/F / AUC(0-t) / half-life / Cmax / Tmax / Vd/F: human, plasma", "method": "23 healthy adult volunteers received 6 weekly subcutaneous doses of apraglutide (1, 5, or 10 mg) or placebo and were followed for a further 6 weeks after the last dose. Blood collections were controlled for diet, lifestyle, and diurnal effects. […] PK data underwent non-compartmental analysis and PD data were analyzed by ANCOVA.\nAs with citrulline, a statistical steady-state analysis per dose level was performed for apraglutide using Helmert's approach."}}, "note": "Several values for one entry are separate records, joined by “and”; a condition that tells them apart may be missing. Identical values can stand only once. Marks after values point to notes of the source that are not given here. Square brackets hold non-standard residues; d marks the D form. Peptide text beside a SMILES is read from it. ξ: configuration not given here. Ile(3ξ) = CCC(C)[C@H](N)C(=O)O; Thr(3ξ) = CC(O)[C@H](N)C(=O)O; Nle = CCCC[C@H](N)C(=O)O", "data": [{"smiles": "CCCC[C@H](NC(=O)[C@H](CCC(=O)O)NC(=O)[C@H](CC(=O)O)NC(=O)[C@H](CO)NC(=O)[C@H](Cc1ccccc1)NC(=O)[C@H](CO)NC(=O)CNC(=O)[C@H](CC(=O)O)NC(=O)CNC(=O)[C@@H](N)Cc1c[nH]cn1)C(=O)N[C@H](Cc1ccccc1)C(=O)N[C@H](C(=O)N[C@H](C(=O)N[C@@H](CC(C)C)C(=O)N[C@@H](CC(=O)O)C(=O)N[C@@H](CC(C)C)C(=O)N[C@@H](CC(C)C)C(=O)N[C@@H](C)C(=O)N[C@@H](C)C(=O)N[C@@H](CCCNC(=N)N)C(=O)N[C@@H](CC(=O)O)C(=O)N[C@@H](Cc1ccccc1)C(=O)N[C@H](C(=O)N[C@@H](CC(N)=O)C(=O)N[C@@H](Cc1c[nH]c2ccccc12)C(=O)N[C@@H](CC(C)C)C(=O)N[C@H](C(=O)N[C@@H](CCC(N)=O)C(=O)N[C@H](C(=O)N[C@@H](CCCCN)C(=O)N[C@H](C(=O)N[C@H](C(=O)N[C@@H](CC(=O)O)C(N)=O)C(C)O)C(C)CC)C(C)O)C(C)CC)C(C)CC)C(C)CC)C(C)O", "note": "(stereo partly drawn) [apraglutide, L-histidyl-glycyl-L-aspartyl-glycyl-L-seryl-L-phenylalanyl-L-seryl-L-aspartyl-L-glutamyl-L-norleucyl-D-phenylalanyl-L-threonyl-Lisoleucyl-L-leucyl-L-aspartyl-L-leucyl-L-leucyl-L-alanyl-L-alanyl-L-arginyl-L-aspartyl-L-phenylalanyl-L-isoleucyl-L-asparaginyl-Ltryptophanyl-L-leucyl-L-isoleucyl-L-glutaminyl-L-threonyl-L-lysyl-L-isoleucyl-L-threonyl-Laspartic acid amide] (H-HGDGSFSDE[Nle][dF][Thr(3ξ)][Ile(3ξ)]LDLLAARDF[Ile(3ξ)]NWL[Ile(3ξ)]Q[Thr(3ξ)]K[Ile(3ξ)][Thr(3ξ)]D-NH2)", "values": [{"measurement": "Intestinotrophic effect in animal models, in words", "setting": "[1]", "value": "promoted increase in intestinal length and weight, villus height and crypt depth"}, {"measurement": "1st Ctrough, arithmetic mean ± SD", "setting": "[2]; 1 mg", "value": "0.000 ng/mL and 0.000 ± 0.000 ng/mL"}, {"measurement": "4th Ctrough, arithmetic mean ± SD", "setting": "[2]; 1 mg", "value": 0.873, "unit": "ng/mL"}, {"measurement": "AUCtau, arithmetic mean ± SD", "setting": "[2]; 1 mg, (first dose)", "value": 35.214, "unit": "ng·days/mL"}, {"measurement": "AUCtau/dose, Arithmetic mean ± standard deviation", "setting": "[2]; 1 mg, (first dose)", "value": "0.03037 ± 152.1", "unit": "ng·days/mL/µg"}, {"measurement": "AUCtau/dose, Arithmetic mean ± standard deviation", "setting": "[2]; 1 mg, dose #6", "value": "0.05813 ± 23.1", "unit": "ng·days/mL/µg"}, {"measurement": "4th Ctrough, arithmetic mean ± SD", "setting": "[2]; 5 mg", "value": 10.163, "unit": "ng/mL"}, {"measurement": "5th Ctrough, arithmetic mean ± SD", "setting": "[2]; 5 mg", "value": 7.605, "unit": "ng/mL"}, {"measurement": "AUCtau, arithmetic mean ± SD", "setting": "[2]; 5 mg, (first dose)", "value": 300.269, "unit": "ng·days/mL"}, {"measurement": "AUCtau/dose, Arithmetic mean ± standard deviation", "setting": "[2]; 5 mg, (first dose)", "value": "0.05407 ± 47.1", "unit": "ng·days/mL/µg"}, {"measurement": "AUCtau/dose, Arithmetic mean ± standard deviation", "setting": "[2]; 5 mg, dose #6", "value": "0.06595 ± 47.2", "unit": "ng·days/mL/µg"}, {"measurement": "Lambda_Z, Arithmetic mean ± standard deviation", "setting": "[2]; 5 mg, dose #6 (N = 4)", "value": "0.2384 ± 36.6** 1/d"}, {"measurement": "Lambda_Z, arithmetic mean ± SD", "setting": "[2]; 5 mg, dose #6 (N = 4)", "value": "0.2508 ± 0.09871** 1/d"}, {"measurement": "2nd Ctrough, arithmetic mean ± SD", "setting": "[2]; 10 mg", "value": 18.460, "unit": "ng/mL"}, {"measurement": "6th Ctrough, arithmetic mean ± SD", "setting": "[2]; 10 mg", "value": 13.710, "unit": "ng/mL"}, {"measurement": "AUCtau, arithmetic mean ± SD", "setting": "[2]; 10 mg, (first dose)", "value": 476.937, "unit": "ng·days/mL"}, {"measurement": "AUCtau/dose, Arithmetic mean ± standard deviation", "setting": "[2]; 10 mg, (first dose)", "value": "0.04291 ± 47.6", "unit": "ng·days/mL/µg"}, {"measurement": "Steady-state contrast: mean Ctrough over week 3 to 6 against week 2", "setting": "[2]; 10 mg, Helmert's approach", "value": "−3.616"}, {"measurement": "Lambda_Z, arithmetic mean ± SD", "setting": "[2]; 10 mg, dose #6", "value": "0.2463 ± 0.09975", "unit": "day⁻¹"}, {"measurement": "AUCtau/dose, Arithmetic mean ± standard deviation", "setting": "[2]; 10 mg, dose #6 (N = 5)", "value": "0.05288 ± 52.4", "unit": "ng·days/mL/µg"}, {"measurement": "Lambda_Z, Arithmetic mean ± standard deviation", "setting": "[2]; 10 mg, dose #6 (N = 5)", "value": "0.231 ± 41.3* 1/d"}, {"measurement": "Kinetics over the 1 to 10 mg dose range, in words", "setting": "[2]; dose-normalized Cmax and AUCtau", "value": "follows linear kinetics"}, {"measurement": "CL/F", "setting": "[2]; sc, 1 mg", "value": 11.9, "unit": "mL/min"}, {"measurement": "AUC(0-t)", "setting": "[2]; sc, 1 mg, AUClast, Arithmetic mean ± standard deviation, dose #6", "value": 1310, "unit": "ng·h/mL"}, {"measurement": "AUC(0-t)", "setting": "[2]; sc, 1 mg, AUClast, arithmetic mean ± SD, dose #6", "value": 1360, "unit": "ng·h/mL"}, {"measurement": "AUC(0-t)", "setting": "[2]; sc, 1 mg, AUCtau, arithmetic mean ± SD, (first dose)", "value": 845, "unit": "ng·h/mL"}, {"measurement": "CL/F", "setting": "[2]; sc, 5 mg", "value": 10.5, "unit": "mL/min"}, {"measurement": "AUC(0-t)", "setting": "[2]; sc, 5 mg, AUClast, Arithmetic mean ± standard deviation, dose #6", "value": 8500, "unit": "ng·h/mL"}, {"measurement": "AUC(0-t)", "setting": "[2]; sc, 5 mg, AUClast, arithmetic mean ± SD, dose #6", "value": 9170, "unit": "ng·h/mL"}, {"measurement": "AUC(0-t)", "setting": "[2]; sc, 5 mg, AUCtau, arithmetic mean ± SD, (first dose)", "value": 7210, "unit": "ng·h/mL"}, {"measurement": "CL/F", "setting": "[2]; sc, 10 mg", "value": 13.1, "unit": "mL/min"}, {"measurement": "AUC(0-t)", "setting": "[2]; sc, 10 mg, AUClast, Arithmetic mean ± standard deviation, dose #6 (N = 5)", "value": 13800, "unit": "ng·h/mL"}, {"measurement": "AUC(0-t)", "setting": "[2]; sc, 10 mg, AUCtau, arithmetic mean ± SD, (first dose)", "value": 11400, "unit": "ng·h/mL"}, {"measurement": "half-life", "setting": "[2]; sc, 10 mg, Half-life indicated by PK parameters, healthy volunteers, 6 weekly SC doses of 1, 5 or 10 mg", "value": 72, "unit": "h"}, {"measurement": "Cmax", "setting": "[2]; subcutaneous, 1 mg, arithmetic mean ± SD, (first dose)", "value": "13.9 ± 11.2", "unit": "ng/mL"}, {"measurement": "Cmax", "setting": "[2]; subcutaneous, 1 mg, arithmetic mean ± SD, dose #6", "value": "24.2 ± 9.22", "unit": "ng/mL"}, {"measurement": "Cmax", "setting": "[2]; subcutaneous, 1 mg, geometric mean (geometric coefficient of variation %), (first dose)", "value": "12.3 ± 146", "unit": "ng/mL"}, {"measurement": "Tmax", "setting": "[2]; subcutaneous, 1 mg, tmax at dose 1 and 6, 1 mg", "value": "~24", "unit": "h"}, {"measurement": "Tmax", "setting": "[2]; subcutaneous, 1 mg, tmax, median, (first dose)", "value": 24, "unit": "h"}, {"measurement": "Tmax", "setting": "[2]; subcutaneous, 1 mg, tmax, median, dose #6", "value": 21.6, "unit": "h"}, {"measurement": "Vd/F", "setting": "[2]; subcutaneous, 5 mg", "value": "50.2 ± 61", "unit": "L"}, {"measurement": "Cmax", "setting": "[2]; subcutaneous, 5 mg, arithmetic mean ± SD, (first dose)", "value": "94.1 ± 50.5", "unit": "ng/mL"}, {"measurement": "Cmax", "setting": "[2]; subcutaneous, 5 mg, arithmetic mean ± SD, dose #6", "value": "125 ± 72.1", "unit": "ng/mL"}, {"measurement": "Cmax", "setting": "[2]; subcutaneous, 5 mg, geometric mean (geometric coefficient of variation %), (first dose)", "value": "84.1 ± 55.1", "unit": "ng/mL"}, {"measurement": "Cmax", "setting": "[2]; subcutaneous, 5 mg, geometric mean (geometric coefficient of variation %), dose #6", "value": "108 ± 64.6", "unit": "ng/mL"}, {"measurement": "half-life", "setting": "[2]; subcutaneous, 5 mg, Half life, 5 mg, following dose #6", "value": "72.7 ± 23", "unit": "h"}, {"measurement": "half-life", "setting": "[2]; subcutaneous, 5 mg, t1/2, lower section headed Arithmetic mean ± standard deviation, dose #6 (N = 4)", "value": 69.8, "unit": "h"}, {"measurement": "Tmax", "setting": "[2]; subcutaneous, 5 mg, tmax at dose 1 and 6, 5 mg", "value": "~24", "unit": "h"}, {"measurement": "Tmax", "setting": "[2]; subcutaneous, 5 mg, tmax, median, (first dose)", "value": 24, "unit": "h"}, {"measurement": "Tmax", "setting": "[2]; subcutaneous, 5 mg, tmax, median, dose #6", "value": 24, "unit": "h"}, {"measurement": "Vd/F", "setting": "[2]; subcutaneous, 10 mg", "value": "81.9 ± 98.6", "unit": "L"}, {"measurement": "Cmax", "setting": "[2]; subcutaneous, 10 mg, arithmetic mean ± SD, (first dose)", "value": "137 ± 55", "unit": "ng/mL"}, {"measurement": "Cmax", "setting": "[2]; subcutaneous, 10 mg, arithmetic mean ± SD, dose #6", "value": "182 ± 97.6", "unit": "ng/mL"}, {"measurement": "Cmax", "setting": "[2]; subcutaneous, 10 mg, geometric mean (geometric coefficient of variation %), (first dose)", "value": "128 ± 39.9", "unit": "ng/mL"}, {"measurement": "half-life", "setting": "[2]; subcutaneous, 10 mg, Half life, 10 mg, following dose #6", "value": "76.3 ± 27.6", "unit": "h"}, {"measurement": "half-life", "setting": "[2]; subcutaneous, 10 mg, t1/2, lower section headed Arithmetic mean ± standard deviation, dose #6 (N = 5)", "value": 72, "unit": "h"}, {"measurement": "Tmax", "setting": "[2]; subcutaneous, 10 mg, tmax at dose 1 and 6, 10 mg", "value": "~48", "unit": "h"}, {"measurement": "Tmax", "setting": "[2]; subcutaneous, 10 mg, tmax, median, (first dose)", "value": 45.6, "unit": "h"}, {"measurement": "Tmax", "setting": "[2]; subcutaneous, 10 mg, tmax, median, dose #6", "value": 45.6, "unit": "h"}]}]}
